We go through 21 molecules from patent publication US20240025868A1, “PHENOTHIAZINE COMPOUNDS FOR THE TREATMENT OF ALZHEIMER'S DISEASE AND OTHER AGE-RELATED AND NEUROLOGICAL DISEASES” (Icahn School of Medicine at Mount Sinai, priority 2020, published 2024).

The subject of one data set is SARS-CoV-2. The data set is described as follows: microbe, parasite or virus in culture. Format: cell-based.
A short description of data set [1]: Viability of Vero cells (CC50). The format is cell-based. The settings on record: African green monkey; concentration that reduces viability of Vero cells.
The test system of a further data set is TNF-alpha. The data set is described as follows: Microglial TNF-alpha secretion, LPS stimulated. Format: cell-based. The settings on record: for TNFa: percentage of TNFa vs LPS stimulated controls, Table 2; for TNF-a.: Table 3, microglial inflammation, presented for comparison. The protocol: The efficacy of these compounds to reduce toxicity are assessed, as reflected by age-dependent paralysis, in an Abeta transgenic C. elegans model of Alzheimer's Disease. Because microglial inflammation, especially the cytokine TNF-alpha, are implicated in driving the pathophysiology of Alzheimer's Disease, […], was also assessed.

The subject of another data set is microglial cells. The data set is described as follows: MTT viability of microglial cells (microglial toxicity). The format is cell-based.
In the next data set the test system is C. elegans. The data set is described as follows: Lifespan in C. elegans. The format is in vivo.
In data set [2] the test system is Abeta transgenic C. elegans. The data set is described as follows: Paralysis in Abeta transgenic C. elegans (Abeta toxicity). The format is in vivo. The note with it: for paralysis: Table 3, Abeta toxicity in C. elegans, one to six unexplained values per cell.
The test system of data set [3] is mouse model of intracerebral hemorrhage. Description: Mouse model of intracerebral hemorrhage, motor and cognitive function. The format is in vivo. The settings on record: for cognitive function: alternation in a Y-maze; for cognitive function / motor function: compared to DMSO, normalized to pre-ICH function; for motor function: rotarod. The protocol:
FIG. 1. […] Motor function was assessed using rotarod and cognitive was assessed by alternation in a Y-maze. All data were normalized to data pre-ICH function.
Motor function was assessed using rotarod and cognitive was assessed by alternation in a Y-maze. All data were normalized to data pre-ICH function.

Data set [4] is described as follows: Plasma and brain concentrations after IV or oral administration in mice. The settings on record: male C57BL/6 mice. The format is in vivo. The procedure: FIG. 2. Plasma and brain concentrations of TC084-110 over 8 h following a single IV injection (A) at 1 mg/kg or oral administration (B) at 10 mg/kg in male C57BL/6 mice. […] Plasma and brain concentrations at each time point represent the mean+/−SD from 3 mice.

Data set [5] deals with Abeta transgenic C. elegans. The settings on record: Zhang, Poplawski et al. 2009; cited from earlier work.
Data set [6] relates to mouse double-transgenic (A-beta/presenilin) model of AD. The settings on record: treatment between 14 and 15 months; Govindarajan et al. 2011; cited from earlier work.
The next data set concerns Vero cells. Description: Viability of Vero cells (CC50). Format: cell-based. The settings on record: concentration that reduces viability of Vero cells.
Setting [7] is: percentage of MTT viability compared to unstimulated DMSO control cells, Table 2.
The mark [8] stands for this setting: Table 3, microglial toxicity, presented for comparison.
Setting [9] is: Table 3, net protective effects in C. elegans, class letter.
Where [10] appears, read: Severe acute respiratory syndrome coronavirus 2, concentration that inhibits replication of SARS-CoV-2 in Vero cells by 50%, read-out: IC50.
Where [11] appears, read: concentration that inhibits replication of SARS-CoV-2 in Vero cells by 50%, read-out: IC50.

As usually defined, the IC50 is the point on the concentration scale where inhibition reaches its midpoint. Broadly, the CC50 is the concentration at which the toxic effect on the cells reaches its halfway point. Lower therefore signals harm at low concentration.

Several values for one entry are separate records, joined by “and”; a condition that tells them apart may be missing. Equal entries are not always repeated. Structures can show the parent of a compound that is named as a salt. Where two headings read alike, the source gives them in different places.

For the molecule `CCC(CC)COC(=O)[C@H](C)N[P@](=O)(OC[C@H]1O[C@@](C#N)(c2ccc3c(N)ncnn23)[C@H](O)[C@@H]1O)Oc1ccccc1` [Remdesivir, reference compound], it took 1.2 µM to reach half-maximal inhibition with SARS-CoV-2 (Severe acute respiratory syndrome coronavirus 2, Vero) (IC50). In [1], the CC50 is above 20 µM.
For `CC(=O)c1ccc2c(c1)N(C(C)=O)c1ccccc1S2` [TC84-13, 1,1′-(10H-phenothiazine-2,10-diyl)bis(ethan-1-one)], the TNFa with TNF-alpha worked out at 95.36%. Further, the MTT in the data set with microglial cells (setting [7]) was found to be 154.03%. The “lifespan in C. elegans” value in the data set with C. elegans is recorded as “increased lifespan”. Besides, the Lifespan result in the data set with C. elegans (Table 2, class letters I, D, N) was “I”.
For `CC(=O)c1ccc2c(c1)N(C(C)=O)c1ccccc1[S+]2[O-]` (centres unmarked) [TC84-20, 1,1′-(5-oxido-10H-phenothiazine-2,10-diyl)bis(ethan-1-one)] the same measures were 95.41%, 158.76%, “increased lifespan” and “I”.
Turning to `COc1ccc2c(c1)N(C(C)=O)c1ccccc1S2` [TC84-31, 1-(2-methoxy-10H-phenothiazin-10-yl)ethan-1-one], the TNFa in the data set with TNF-alpha worked out at 92.28%. In the data set with microglial cells (setting [7]), the MTT came out at 153.72%.
The corresponding values for `CC(=O)N1c2ccccc2Sc2ccc(C(F)(F)F)cc21` [TC84-32, 1-(2-(trifluoromethyl)-10H-phenothiazin-10-yl)ethan-1-one] are 90.74% and 141.59%.
In the case of `COc1ccc2c(c1)N(C(C)=O)c1ccccc1[S+]2[O-]` (centres unmarked) [TC84-37, 1-(2-methoxy-5-oxido-10H-phenothiazin-10-yl)ethan-1-one], in the data set with TNF-alpha, the TNFa turned out to be 90.49%. In the data set with microglial cells (setting [7]), this molecule displayed an MTT of 140.38%.
In the data set on TNF-alpha, `CC(=O)N1c2ccccc2[S+]([O-])c2ccc(C(F)(F)F)cc21` (centres unmarked) [TC84-38, 1-(5-oxido-2-(trifluoromethyl)-10H-phenothiazin-10-yl)ethan-1-one] gave a TNFa of 97.23%. The molecule also displayed an MTT with microglial cells (setting [7]) of 149.90%. Further, the “lifespan in C. elegans” value in the data set with C. elegans was “increased lifespan”. Moreover, in the data set on C. elegans (Table 2, class letters I, D, N), the Lifespan result is given as “I”.
For `CC(=O)N1c2ccccc2[S+]([O-])c2ccc(Cl)cc21` (centres unmarked) [TC84-39, 1-(2-chloro-5-oxido-10H-phenothiazin-10-yl)ethan-1-one] the same measures were 90.88%, 134.67%, “increased lifespan” and “I”.
As for `CN1CCCCC1CCN1c2ccccc2Sc2ccc(F)cc21` (centres unmarked) [TC84-110, 2-fluoro-10-(2-(1-methylpiperidin-2-yl)ethyl)-10H-phenothiazine], in the data set on TNF-alpha, the “microglial TNF-alpha secretion” value is “significantly reduced”, the TNF-a. was 58.49% and the TNFa was found to be 58.49%. Besides, the MTT in the data set on microglial cells (setting [8]) is reported as 91.99%. In addition, the MTT in the data set with microglial cells (setting [7]) was 91.99%. Also, in data set [2], the Abeta toxicity entry was “reduced Abeta toxicity”. In addition, in the data set with C. elegans, the “lifespan in C. elegans” value is on record as “increased lifespan”. Moreover, the Lifespan entry in the data set with C. elegans (Table 2, class letters I, D, N) was “I”. The Lifespan result with C. elegans (setting [9]) was “I”. For the same molecule, the SARS-CoV-2 replication result in the data set with SARS-CoV-2 was “reduced SARS-CoV-2 replication”. Moreover, in the data set with SARS-CoV-2 (setting [10]), the IC50 came to 1.2 µM. The molecule also had a CC50 in [1] of 8.1 µM. In addition, in data set [3] (administered after the lesion was produced), the “protection to maintain open field behavior and cognitive impairments” value was “significantly protective”. Moreover, in data set [3], the cognitive function entry is “preserve” and the motor function entry is recorded as “preserve”. The “off-target effects such as sedation” value in [3] (mouse) is “no discernable off-target effects”. For the same molecule, the oral availability result in data set [4] (oral administration at 10 mg/kg) was “orally available”. Moreover, the brain/plasma ratio result in [4] (single IV 1 mg/kg or oral 10 mg/kg, over 8 h) is given as “very high”.
Regarding `Cc1cc2c(cc1C)N(CCCN(C)C)c1ccccc1S2` [TC84-124, 3-(2,3-dimethyl-10H-phenothiazin-10-yl)-N,N-dimethylpropan-1-amine], in the data set on TNF-alpha, the “microglial TNF-alpha secretion” value is “significantly reduced”, the TNF-a. turned out to be 56.73% and the TNFa is 56.73%. The same molecule displayed an MTT in the data set on microglial cells (setting [8]) of 82.48%. Besides, in the data set on microglial cells (setting [7]), the MTT worked out at 82.48%. For the same molecule, the Abeta toxicity entry in [2] is “reduced Abeta toxicity”. Moreover, the “lifespan in C. elegans” value with C. elegans is “increased lifespan”. The Lifespan result in the data set on C. elegans (Table 2, class letters I, D, N) was “I”. Also, the Lifespan result in the data set with C. elegans (setting [9]) is “I”. The SARS-CoV-2 replication entry with SARS-CoV-2 is given as “reduced SARS-CoV-2 replication”. Besides, the IC50 in the data set with SARS-CoV-2 (setting [10]) was determined as 1.7 µM. In data set [1], this molecule showed a CC50 of 6.5 µM.
For `Cc1cc2c(cc1C)N(CCC1CCCCN1C)c1ccccc1S2` (centres unmarked) [TC84-125, 2,3-dimethyl-10-(2-(1-methylpiperidin-2-yl)ethyl)-10H-phenothiazine], in the data set on TNF-alpha, the “microglial TNF-alpha secretion” value is given as “significantly reduced” and the TNFa was determined as 41.37%. The MTT with microglial cells (setting [7]) is recorded as 42.77%. Besides, in [2], the Abeta toxicity entry is “reduced Abeta toxicity”. Also, the “lifespan in C. elegans” value in the data set with C. elegans was “increased lifespan”. The Lifespan result with C. elegans (Table 2, class letters I, D, N) was “I”.
`CN1CCCCC1CCN1c2ccccc2Sc2cc(C(F)(F)F)ccc21` (centres unmarked) [TC84-144, 10-(2-(1-methylpiperidin-2-yl)ethyl)-3-(trifluoromethyl)-10H-phenothiazine] came in with a TNFa in the data set on TNF-alpha of 45.34%. This molecule also gave an MTT in the data set with microglial cells (setting [7]) of 41.27%. Further, the “lifespan in C. elegans” value with C. elegans is listed as “increased lifespan”. In addition, the Lifespan entry with C. elegans (Table 2, class letters I, D, N) is recorded as “I”.
The corresponding values for `CC(=O)c1ccc2c(c1)N(CCCN(C)C(C)=O)c1ccccc1S2` [TC84-161, N-(3-(2-acetyl-10H-phenothiazin-10-yl)propyl)-N-methylacetamide] are 89.27%, 106.15%, “increased lifespan” and “I”.
Turning to `CC(=O)N(C)CCCN1c2ccccc2Sc2ccc(C(F)(F)F)cc21` [TC84-162, N-methyl-N-(3-(2-(trifluoromethyl)-10H-phenothiazin-10-yl)propyl)acetamide], in the data set on TNF-alpha, the “microglial TNF-alpha secretion” value is on record as “significantly reduced” and the TNFa amounted to 94.58%. Moreover, the MTT with microglial cells (setting [7]) came out at 121.08%. The Abeta toxicity entry in [2] is listed as “reduced Abeta toxicity”.
With `COc1ccc2c(c1)N(CCCN(C)C(C)=O)c1ccccc1S2` [TC84-163, N-(3-(2-methoxy-10H-phenothiazin-10-yl)propyl)-N-methylacetamide], the TNFa in the data set with TNF-alpha came out at 99.98%. Besides, in the data set with microglial cells (setting [7]), the MTT was 108.79%. Also, the “lifespan in C. elegans” value in the data set with C. elegans is given as “increased lifespan”. Further, in the data set on C. elegans (Table 2, class letters I, D, N), the Lifespan result is “I”.
In the case of `Cc1ccc2c(c1)N(CCC1CCCCN1C)c1cc(C(F)(F)F)ccc1S2` (centres unmarked) [TC96-20, 2-methyl-10-(2-(1-methylpiperidin-2-yl)ethyl)-8-(trifluoromethyl)-10H-phenothiazine], in the data set on TNF-alpha, the “microglial TNF-alpha secretion” value was “significantly reduced” and the TNFa is 49.67%. This molecule came in with an MTT with microglial cells (setting [7]) of 51.90%. The Abeta toxicity entry in [2] is “reduced Abeta toxicity”.
The molecule `COc1ccc2c(c1)N(CCC1CCCCN1C(C)=O)c1ccccc1S2` (centres unmarked) [TC96-32, 1-(2-(2-(2-methoxy-10H-phenothiazin-10-yl)ethyl)piperidin-1-yl)ethan-1-one] yielded a TNFa in the data set with TNF-alpha of 78.98%. Further, in the data set with microglial cells (setting [7]), the MTT stood at 106.92%.
With `CN(C)CCCN1c2ccccc2Sc2ccc(C(F)(F)F)cc21` [Triflupromazine Hydrochloride], the CC50 in data set [1] is 7 µM.
For `CCCC(=O)[O-].[Na+]` [sodium butyrate], in data set [5], the “Abeta toxicity in vivo in a C. elegans model of AD” value was “significantly reduces Abeta toxicity”. Moreover, in data set [6], the A-beta plaques entry is listed as “no changes in A-beta plaques”; the “acetylation of H3K14, H4K5, and H4K16” value is on record as “reduced acetylation”; the cognitive impairments entry is “reversed cognitive impairments”.
Take Chlorpromazine [reference compound]: the TNF-a. with TNF-alpha stood at 63.83%. The molecule further yielded an MTT with microglial cells (setting [8]) of 79.38%. In addition, the paralysis in [2] is reported as 0%. In addition, the Lifespan result in the data set with C. elegans (setting [9]) is on record as “I”. The IC50 in the data set on SARS-CoV-2 (setting [11]) stood at 4.4 µM. The cytotoxic concentration (CC50) with Vero cells came out at 6.7 µM.
Chlorprothixene [reference compound]: in the data set on TNF-alpha, the TNF-a. is reported as 69.84%. In the data set with microglial cells (setting [8]), this molecule registered an MTT of 122.40%. Moreover, the paralysis in [2] was 64.31% and 47.65%. In addition, in the data set on C. elegans (setting [9]), the Lifespan entry is recorded as “I 0.0493”. In addition, the IC50 in the data set on SARS-CoV-2 (setting [11]) was 1 µM. This molecule registered a CC50 in the data set on Vero cells of 3.5 µM. In data set [3], the cognitive function entry is given as “preserve” and the motor function result is recorded as “preserve”.
